Assay results reported in US8796272B2, “Glycine transporter-inhibiting substances” (Taisho Pharmaceutical Co., Ltd, priority 2011, dated 2014).

Biological target: T1, human type 1 glycine transporter (GlyT1) (Homo sapiens, UniProt P48067)
T1 construct: T98G cells (glioma cells) expressing human type 1 glycine transporter (GlyT1) were used; endogenous in cells; host or cells: T98G cells (human glioma)
T1 sequence (P48067 1-706): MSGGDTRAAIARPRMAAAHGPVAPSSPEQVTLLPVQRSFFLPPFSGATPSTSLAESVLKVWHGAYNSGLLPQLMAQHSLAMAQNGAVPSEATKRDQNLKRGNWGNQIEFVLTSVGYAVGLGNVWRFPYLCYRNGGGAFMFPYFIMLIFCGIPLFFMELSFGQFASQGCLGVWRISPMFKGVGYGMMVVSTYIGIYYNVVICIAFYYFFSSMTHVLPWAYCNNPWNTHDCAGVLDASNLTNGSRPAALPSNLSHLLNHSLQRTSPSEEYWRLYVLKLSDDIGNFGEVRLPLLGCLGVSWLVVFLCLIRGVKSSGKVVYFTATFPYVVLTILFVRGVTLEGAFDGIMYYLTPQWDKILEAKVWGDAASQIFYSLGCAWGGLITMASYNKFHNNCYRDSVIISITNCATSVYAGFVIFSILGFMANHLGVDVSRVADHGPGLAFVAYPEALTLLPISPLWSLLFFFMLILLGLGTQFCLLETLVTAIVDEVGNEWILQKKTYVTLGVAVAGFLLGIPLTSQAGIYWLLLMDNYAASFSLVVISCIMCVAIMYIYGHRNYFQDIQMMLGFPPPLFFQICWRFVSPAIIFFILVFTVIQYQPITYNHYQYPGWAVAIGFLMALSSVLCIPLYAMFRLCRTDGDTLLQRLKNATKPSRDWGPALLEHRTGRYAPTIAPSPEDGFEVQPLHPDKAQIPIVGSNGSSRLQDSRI
Assay: Glycine uptake inhibition experiment ([3H] glycine uptake)
Assay type: cell-based
Conditions: T98G cells (glioma cells) expressing human GlyT1; [3H] glycine 250 nM; 10-min pretreatment, 15 minutes at room temperature; read-out: glycine uptake inhibitory activity (IC50 value)
Description: A glycine uptake experiment was conducted in accordance with the method published in Neuron, 8, 927-935, 1992. In the experiment, T98G cells (glioma cells) expressing human type 1 glycine transporter (GlyT1) were used. The T98G cells were seeded in a 96-well plate at 2.0×10^4 cells/well and cultured overnight in a CO2 incubator. The test substance was dissolved in a 100% DMSO solution and then dissolved in a 10 mM HEPES buffer solution (pH 7.4) containing 150 mM sodium chloride, 1 mM calcium chloride, 5 mM potassium chloride, 1 mM magnesium chloride, 10 mM glucose and 0.2% bovine serum albumin. After removing the cell culture medium, the test substance was subjected to a 10-min pretreatment. Subsequently, the test substance and [^3H] glycine (final concentration: 250 nM) were added to the cells and reaction was performed at room temperature for 15 minutes. After the end of the reaction, the extracellular fluid was aspirated with a manifold to remove excess labeled glycine present outside the cells, and then the cells were lysed with a 0.5 M aqueous sodium hydroxide solution. The glycine content in the cells was determined by measuring the radioactivity in the cell lysate with a liquid scintillation counter. Glycine uptake in the presence of 10 μM ALX^5407 was defined as non-specific uptake, and the value calculated by subtracting the amount of the non-specific uptake from the total uptake in the absence of 10 μM ALX5407 was defined as specific uptake. In addition, glycine uptake inhibitory activity (IC50 value) was calculated from an inhibition curve at the concentrations of each test substance ranging from 10^−9 to 10^−5 M.
It should be noted that ALX^5407 is an HCl salt of N-[(3R)-3-([1,1′-biphenyl]-4-yloxy)-3-(4-fluorophenyl)propyl]-N-methylglycine.

O=C(CN1C(=O)N(c2ccc(C(F)(F)F)nc2)C[C@@H]1CC1CCCCC1)Nc1cccc(C(F)(F)F)c1 [Compound 8]
IC50: 0.66 µM

CC(C)[C@H]1CN(c2ccc(F)cn2)C(=O)N1CC(=O)Nc1cccc(C(F)(F)F)c1 [Compound 11]
IC50: 0.089 µM

O=C(CN1C(=O)N(c2ccc(C(F)(F)F)nc2)C[C@@H]1c1ccccc1)Nc1cccc(C(F)(F)F)c1 [Compound 12]
IC50: 0.071 µM

CC(C)(C)[C@H]1CN(c2ccc(C(F)(F)F)nc2)C(=O)N1CC(=O)Nc1cccc(C(F)(F)F)c1 [Compound 13]
IC50: 0.074 µM

CC(C)[C@H]1CN(c2ccc(C(F)(F)F)nc2)C(=O)N1CC(=O)Nc1nnc(C(F)(F)F)s1 [Compound 54]
IC50: 0.8 µM

CC(C)[C@H]1CN(c2ccc(C(F)(F)F)nc2)C(=O)N1CC(=O)Nc1cncc(Cl)c1 [Compound 61]
IC50: 0.053 µM

CC(C)[C@H]1CN(c2ncc(Cl)cn2)C(=O)N1CC(=O)Nc1cc(C(F)(F)F)ccn1 [Compound 62]
IC50: 0.033 µM

COc1cnc(N2C[C@H](C(C)C)N(CC(=O)Nc3cc(C(F)(F)F)ccn3)C2=O)nc1 [Compound 93]
IC50: 0.054 µM

CC(C)[C@H]1CN(c2ccc(C(F)(F)F)nc2)C(=O)N1CC(=O)Nc1cc(C(C)(C)C)no1 [Compound 103]
IC50: 0.23 µM

CCc1cnc(N2C[C@H](C(C)C)N(CC(=O)Nc3ccc(C(F)(F)F)nc3)C2=O)nc1 [Compound 104]
IC50: 0.24 µM

COC(C)(C)[C@H]1CN(c2ccc(C(F)(F)F)nc2)C(=O)N1CC(=O)Nc1cc(C(F)(F)F)ccn1 [Compound 148]
IC50: 0.075 µM

O=C(CN1C(=O)N(c2ncc(C(F)(F)F)cc2F)C[C@@H]1CC1CC1)Nc1cc(Cl)ccn1 [Compound 152]
IC50: 0.043 µM

CCc1ccnc(NC(=O)CN2C(=O)N(c3cnc(C(F)(F)F)nc3)C[C@@H]2C(C)C)c1 [Compound 165]
IC50: 0.15 µM

CCOc1ccc(N2C[C@H](C(C)C)N(CC(=O)Nc3cc(Cl)ccn3)C2=O)nc1 [Compound 186]
IC50: 0.045 µM

CC(C)[C@H]1CN(c2ncc(F)cn2)C(=O)N1CC(=O)Nc1cc(Cl)ccn1 [Compound 188]
IC50: 0.6 µM

CC(C)[C@H]1CN(c2ncc(C3CC3)cn2)C(=O)N1CC(=O)Nc1cc(C(F)(F)F)ccn1 [Compound 193]
IC50: 0.022 µM

CCOc1cnc(N2C[C@H]([C@@H](F)CC)N(CC(=O)Nc3cc(C(F)(F)F)ccn3)C2=O)nc1 [Compound 220]
IC50: 0.017 µM

CCOc1cnc(N2C[C@H]([C@@H](C)CC)N(CC(=O)Nc3cc(Cl)ccn3)C2=O)nc1 [Compound 248]
IC50: 0.016 µM

CC[C@H](C)[C@H]1CN(c2ncc(C3CC3)cn2)C(=O)N1CC(=O)Nc1cc(Cl)ccn1 [Compound 249]
IC50: 0.018 µM

CCOc1cnc(N2C[C@H]([C@@H](C)CC)N(CC(=O)Nc3cc(C4CC4)ccn3)C2=O)nc1 [Compound 250]
IC50: 0.024 µM
